Measurements: patent US11987572B2, “Therapeutic compounds and methods of use thereof” (REGENTS OF THE UNIVERSITY OF MINNESOTA, priority 2019, dated 2024)
Where two headings read alike, the source gives them in different places.

What was measured:
Assay type in all cases: binding
BRD4-D1 = target: T1, BRD4-D1 (Homo sapiens, UniProt O60885); assay: Fluorescence anisotropy competition with Fl-JQ1
T1 construct: His6 BRD4 D1 were expressed and purified as reported by A. K. Urick; His6; made in house

BRD4-D2 = target: T2, BRD4-D2 (Homo sapiens, UniProt O60885); assay: Fluorescence anisotropy competition with Fl-JQ1
T2 construct: the second bromodomain of BRD4 (residues 333-460); host or cells: E. coli BL21 Star (DE3)

p38α = target: T3, p38α (Homo sapiens, UniProt Q16539); assay: p38 competitive inhibition assay (KINOMEscan, Eurofins DiscoverX); conditions: mean of two biological replicates
T3 construct: phage display fusion; purchased Eurofins DiscoverX (Fremont California), KINOMEscan service

His9-BRD4 D1 = target: T4, His9-BRD4 D1 (Homo sapiens, UniProt O60885); assay: AlphaScreen assay with His9-BRD4 D1; conditions: mean of two technical replicates
T4 construct: 7.5-60 nM for His9-tagged BRD4 D1; made in house; host or cells: E. coli BL21(DE3) with pRARE

[1] = mean and standard deviation of three independent trials, read-out: IC50 BRD4-D1
[2] = mean and SEM of three biological replicates, read-out: BRD4 D1 IC50 by FA

T3 sequence (Q16539 whole entry, the tested form may be a part): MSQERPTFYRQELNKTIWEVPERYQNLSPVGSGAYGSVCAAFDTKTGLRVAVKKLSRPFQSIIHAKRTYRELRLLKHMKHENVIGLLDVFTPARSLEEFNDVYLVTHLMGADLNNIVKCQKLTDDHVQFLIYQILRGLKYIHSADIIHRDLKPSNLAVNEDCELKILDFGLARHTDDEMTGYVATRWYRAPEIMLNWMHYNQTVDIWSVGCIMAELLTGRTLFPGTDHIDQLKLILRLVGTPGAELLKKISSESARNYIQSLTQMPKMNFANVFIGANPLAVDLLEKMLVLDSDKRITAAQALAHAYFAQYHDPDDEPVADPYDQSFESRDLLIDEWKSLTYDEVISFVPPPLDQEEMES

## Cc1cc(C)cc(Oc2nccc(-c3c(C)nnn3C3CCNCC3)n2)c1
BRD4-D1; [1]
  IC50: 3.01 µM
BRD4-D2
  IC50: 5.87 µM

## Cc1cc(C)cc(Oc2nccc(-c3c(C(C)C)nnn3C3CCNCC3)n2)c1
BRD4-D1; [2]
  IC50: > 100 µM

## CCCc1nnn(C2CCNCC2)c1-c1ccnc(Oc2cc(C)cc(C)c2)n1
BRD4-D1; [2]
  IC50: > 100 µM

## Cc1cc(C)cc(Oc2cncc(-c3c(C)nnn3C3CCNCC3)c2)c1
BRD4-D1; [2]
  IC50: > 100 µM

## Cc1cc(C)cc(Oc2cc(-c3c(C)nnn3C3CCNCC3)ccn2)c1
BRD4-D1; [2]
  IC50: 97 ± 2.6 µM

## Cc1cc(C)cc(Oc2ccnc(-c3c(C)nnn3C3CCNCC3)c2)c1
BRD4-D1; [2]
  IC50: > 100 µM

## Cc1cc(C)cc(Nc2cccc(-c3c(C)nnn3C3CCNCC3)n2)c1
BRD4-D1; [2]
  IC50: 4.5 ± 0.35 µM
p38α
  Kd: > 25 nM

## Cc1cc(C)cc(Nc2nccc(-c3c(-c4ccc(F)cc4)nnn3C3CCNCC3)n2)c1
BRD4-D1; [2]
  IC50: > 100 µM
p38α
  Kd: 120 ± 51 nM

## Cc1cc(C)cc(Oc2nccc(-c3c(C4CC4)nnn3C3CCN(C(=N)N)CC3)n2)c1
BRD4-D1; [2]
  IC50: 61 ± 8.1 µM

## Cc1cc(C)cc(Nc2cccc(-c3c(C)nnn3C3CCN(C(=N)N)CC3)n2)c1
BRD4-D1; [2]
  IC50: 4.5 ± 0.35 µM

## Cc1ccc(-c2ncn(C3CCNCC3)c2-c2ccnc(Nc3cc(C)cc(C)c3)n2)cc1
BRD4-D1; [2]
  IC50: 1.2 ± 0.2 µM
His9-BRD4 D1
  IC50: 1100 nM

## Cc1cc(C)cc(Nc2nccc(-c3c(-c4ccc(Cl)cc4)ncn3C3CCN(C(=N)N)CC3)n2)c1
BRD4-D1; [2]
  IC50: 1.6 µM
His9-BRD4 D1
  IC50: 1400 nM

## Cc1cc(C)cc(Nc2nccc(-c3c(-c4ccccc4)ncn3C3CCNCC3)n2)c1
BRD4-D1; [2]
  IC50: 4.5 ± 0.2 µM
His9-BRD4 D1
  IC50: 2600 nM

## Cc1ccc(Nc2nccc(-c3c(-c4ccc(F)cc4)ncn3C3CCNCC3)n2)cc1C
BRD4-D1; [2]
  IC50: 1.3 ± 0.2 µM

## Fc1ccc(-c2ncn(C3CCNCC3)c2-c2ccnc(Oc3cc(F)cc(F)c3)n2)cc1
BRD4-D1; [2]
  IC50: > 250 µM

## Cc1cc(C)cc(Nc2nccc(-c3c(CO)nnn3C3CCNCC3)n2)c1
His9-BRD4 D1
  IC50: 160000 nM

## Cc1cc(C)cc(Nc2nccc(-c3c(-c4ccc(C(F)(F)F)cc4)ncn3C3CCN(CCN(C)C)CC3)n2)c1
BRD4-D1; [2]
  IC50: 0.15 ± 0.03 µM
His9-BRD4 D1
  IC50: 200 nM

## CC(=O)NCCN1CCC(n2cnc(-c3ccc(C(F)(F)F)cc3)c2-c2ccnc(Nc3cc(C)cc(C)c3)n2)CC1
BRD4-D1; [2]
  IC50: 0.42 ± 0.01 µM
His9-BRD4 D1
  IC50: 1500 nM

## Cc1cc(C)cc(Oc2cccc(-c3c(-c4ccc(C(F)(F)F)cc4)ncn3C3CCN(CCN)CC3)n2)c1
BRD4-D1; [2]
  IC50: 1.1 ± 0.01 µM
His9-BRD4 D1
  IC50: 1300 nM
p38α
  Kd: > 30000 nM

## Cc1cc(C)cc(Oc2nccc(-c3c(C)nnn3C3CCN(C(=N)N)CC3)n2)c1 [drawing 179]
BRD4-D1; [1]
  IC50: 9.7 ± 1.8 µM

## Cc1cc(C)cc(Oc2cccc(-c3c(C)nnn3C3CCN(C(=N)N)CC3)c2)c1 [drawing 180]
BRD4-D1; [1]
  IC50: 12 ± 1.1 µM

## Cc1cc(C)cc(Oc2cccc(-c3c(C)nnn3C3CCN(C(=N)N)CC3)n2)c1 [drawing 181]
BRD4-D1; [1]
  IC50: 3.6 ± 0.05 µM

## Cc1cc(C)cc(Oc2cc(-c3c(C)nnn3C3CCN(C(=N)N)CC3)ccn2)c1 [drawing 182]
BRD4-D1; [1]
  IC50: 97 ± 2.6 µM

## Cc1cc(C)cc(Oc2ccnc(-c3c(C)nnn3C3CCN(C(=N)N)CC3)c2)c1 [drawing 184]
BRD4-D1; [1]
  IC50: > 100 µM

## Cc1cc(Oc2cccc(-c3c(C)nnn3C3CCNCC3)n2)cc(C(C)C)c1 [drawing 187]
BRD4-D2
  IC50: 4.76 µM

## CCC(C)c1cc(C)cc(Oc2cccc(-c3c(C)nnn3C3CCNCC3)n2)c1 (centres unmarked) [drawing 188]
BRD4-D1; [1]
  IC50: 3.21 ± 0.3 µM
BRD4-D2
  IC50: 7.35 µM

## Cc1cc(Oc2cccc(-c3c(C)nnn3C3CCNCC3)n2)cc(C2CCCC2)c1 [drawing 189]
BRD4-D1; [1]
  IC50: 4.44 µM
BRD4-D2
  IC50: 7.35 µM

## CCCCc1cc(CCCC)cc(Oc2cccc(-c3c(C)nnn3C3CCNCC3)n2)c1 [drawing 195]
BRD4-D1; [1]
  IC50: 8.61 µM
BRD4-D2
  IC50: 27.7 µM

## Cc1nnn(C2CCNCC2)c1-c1cccc(Oc2cc(C3CCCCC3)cc(C3CCCCC3)c2)n1 [drawing 197]
BRD4-D1; [1]
  IC50: 62.6 µM

## Cc1nnn(C2CCNCC2)c1-c1cccc(Oc2cc(C(F)(F)F)cc(C(F)(F)F)c2)n1 [drawing 199]
BRD4-D2
  IC50: 45.6 µM

## Cc1cc(C)cc(Oc2nccc(-c3c(C)nnn3C3CCN(C(=N)N)CC3)n2)c1 [drawing 222]
BRD4-D1; [2]
  IC50: 9.7 ± 1.8 µM

## Cc1cc(C)cc(Oc2cccc(-c3c(C)nnn3C3CCN(C(=N)N)CC3)c2)c1 [drawing 223]
BRD4-D1; [2]
  IC50: 12 ± 1.1 µM

## Cc1cc(C)cc(Oc2cccc(-c3c(C)nnn3C3CCN(C(=N)N)CC3)n2)c1 [drawing 224]
BRD4-D1; [2]
  IC50: 3.6 ± 0.05 µM

## Cc1cc(C)cc(Oc2cc(-c3c(C)nnn3C3CCN(C(=N)N)CC3)ccn2)c1 [drawing 225]
BRD4-D1; [2]
  IC50: 97 ± 2.6 µM

## Cc1cc(C)cc(Oc2ccnc(-c3c(C)nnn3C3CCN(C(=N)N)CC3)c2)c1 [drawing 227]
BRD4-D1; [2]
  IC50: > 100 µM

## Cc1cc(Oc2cccc(-c3c(C)nnn3C3CCNCC3)n2)cc(C(C)C)c1 [drawing 251]
His9-BRD4 D1
  IC50: 4760 nM

## CCC(C)c1cc(C)cc(Oc2cccc(-c3c(C)nnn3C3CCNCC3)n2)c1 (centres unmarked) [drawing 252]
BRD4-D1; [2]
  IC50: 3.21 ± 0.3 µM
His9-BRD4 D1
  IC50: 7350 nM

## Cc1cc(Oc2cccc(-c3c(C)nnn3C3CCNCC3)n2)cc(C2CCCC2)c1 [drawing 253]
BRD4-D1; [2]
  IC50: 4.44 µM

## CCCCc1cc(CCCC)cc(Oc2cccc(-c3c(C)nnn3C3CCNCC3)n2)c1 [drawing 259]
BRD4-D1; [2]
  IC50: 8.61 µM
His9-BRD4 D1
  IC50: 27700 nM

## Cc1nnn(C2CCNCC2)c1-c1cccc(Oc2cc(C3CCCCC3)cc(C3CCCCC3)c2)n1 [drawing 261]
BRD4-D1; [2]
  IC50: 62.6 µM

## Cc1nnn(C2CCNCC2)c1-c1cccc(Oc2cc(C(F)(F)F)cc(C(F)(F)F)c2)n1 [drawing 263]
His9-BRD4 D1
  IC50: 45600 nM
